# According to patent US20080241816A1, “Method for Stabilizing Oxidizable Color Developing Reagent” (DAIICHI PURE CHEMICALS CO., LTD, priority 2004, published 2008):
# Legend:
# [1] = Stabilization Test 1 for TPM-PS (storage at 37° C., absorbance at 600 nm); format: physicochemical; conditions: for absorbance at 600 nm, 2-Week storage / absorbance at 600 nm, 3-Week storage / absorbance at 600 nm, Time 0: 37° C.; for absorbance at 600 nm, Time 0: time 0 (start)
# Procedure: TPM-PS was dissolved in each of the aqueous solutions described below so as to attain a concentration of 60 μM, and stored at 37° C. Subsequently, absorbance was measured at 600 nm by means of an automated analyzer (Model 7150; product of Hitachi, Ltd.).
# [2] = Stabilization Test 2 for TPM-PS (storage at 25° C. for 10 days, absorbance at 600 nm); format: physicochemical; conditions: for Variation over 10 days (OD): 600 nm
# Procedure: TPM-PS was dissolved in each of the aqueous solutions described below so as to attain a concentration of 100 μM, and absorbance was measured at 600 nm. After each sample was stored at 25° C. for 10 days, absorbance was again measured at 600 nm.
# [3] = 60 μM in 5 mM Citric acid (pH 2.8)
# [4] = 60 μM in 5 mM Maleic acid (pH 2.5)
# [5] = 60 μM in 5 mM Tartaric acid (pH 2.8)
smiles,measurement,setting,value
"O=S(=O)(O)CCCN(CCCS(=O)(=O)O)c1ccc(C(c2ccc(N(CCCS(=O)(=O)O)CCCS(=O)(=O)O)cc2)c2ccc(N(CCCS(=O)(=O)O)CCCS(=O)(=O)O)cc2)cc1 [TPM-PS, N,N,N′,N′,N″,N″-hexa-3-sulfopropyl-4,4′,4″-triaminotriphenylmethane]","absorbance at 600 nm, 2-Week storage",[1]; [3],0.057
same,"absorbance at 600 nm, 3-Week storage",[1]; [3],0.080
same,"absorbance at 600 nm, Time 0",[1]; [3],0.022
same,"absorbance at 600 nm, 2-Week storage",[1]; [4],0.050
same,"absorbance at 600 nm, 3-Week storage",[1]; [4],0.072
same,"absorbance at 600 nm, Time 0",[1]; [4],0.023
same,"absorbance at 600 nm, 2-Week storage",[1]; [5],0.064
same,"absorbance at 600 nm, 3-Week storage",[1]; [5],0.088
same,"absorbance at 600 nm, Time 0",[1]; [5],0.024
same,"absorbance at 600 nm, 2-Week storage",[1]; 60 μM in 20 mM PB-K (pH 8),0.132
same,"absorbance at 600 nm, 3-Week storage",[1]; 60 μM in 20 mM PB-K (pH 8),0.215
same,"absorbance at 600 nm, Time 0",[1]; 60 μM in 20 mM PB-K (pH 8),0.023
same,nonspecific color development / stability in solution,"[1]; aqueous solutions of pH 1 to 5, 37° C.",suppressed effectively
same,Variation over 10 days (OD),"[2]; 100 μM in 100 mM Citrate buffer, pH 3, 25° C.",−0.01 OD
same,Variation over 10 days (OD),"[2]; 100 μM in 100 mM Citrate buffer, pH 4, 25° C.",0.08 OD
same,Variation over 10 days (OD),"[2]; 100 μM in 100 mM Citrate buffer, pH 5, 25° C.",0.15 OD
same,Variation over 10 days (OD),"[2]; 100 μM in 100 mM Glycine-HCl, pH 2, 25° C.",0.00 OD
same,Variation over 10 days (OD),"[2]; 100 μM in 100 mM Glycine-HCl, pH 3, 25° C.",−0.01 OD
same,Variation over 10 days (OD),"[2]; 100 μM in 100 mM Potassium phosphate buffer, pH 6, 25° C.",0.22 OD
same,Variation over 10 days (OD),"[2]; 100 μM in 100 mM Potassium phosphate buffer, pH 7, 25° C.",0.16 OD
same,Variation over 10 days (OD),"[2]; 100 μM in 100 mM Potassium phosphate buffer, pH 8, 25° C.",0.17 OD
same,Variation over 10 days (OD),"[2]; 100 μM in Control (purified water), pH Not regulated, 25° C.",0.22 OD
same,Variation over 10 days (OD),"[2]; 100 μM in HCl—KCl, pH 1, 25° C.",−0.01 OD
same,Variation over 10 days (OD),"[2]; 100 μM in HCl—KCl, pH 2, 25° C.",0.01 OD
same,absorbance variation / storage stability,"[2]; aqueous solution of pH 1 to 5, 25° C., 10 days",stably stored
